Assay results as given in US20170239201A1, “GLYCOLIC ACID ENHANCES SPERM MOBILITY” (MAX-PLANCK-GESELLSCHAT ZUR FORDERUNG DER WISSENSCHAFTEN E.V., priority 2014, published 2017).

Columns and labels:
[1] = test system: mouse sperm; experiment: Mouse sperm motility and progressivity (CASA system, Hamilton-Thorne); format: cell-based; details: for difference in treated mouse sperm compared to controls: motility/progressivity
Procedure: Extract epididymis and open them in CPA medium (18% Raffinose and 3% Low fat milk powder). Let spermatozoids swim out for 5 min at room temperature.
For each condition, take 4 μl of mouse sperm in CPA and place in 196 μl of HTF medium from the incubator (at 37° C.). Let it incubate 5 min. in the 37° C. incubator, add substances to the HTF medium (see formulation below) and incubate for different times.
At each time point, fill a Leja-Slide with 25 μl of the HTF buffer containing the diluted sperm and place in the sperm counting machine (Hamilton-Thorne, USA). The machine takes 10 pictures per samples and analyses the different parameters (motility, progressivity,etc. . . . ). Sperm motility analysis was done blindly. Glycolic acid and […] were given to the technician from the facility as Substance 1 and Substance 2, only later did […] get to know which belong to what compound.
(§1) The examples tested the effect of 10 to 30 mM of glycolic acid and D-lactate on mouse sperm motility and progressivity or on bull motility. For this, epididymic mouse sperm from two strains (WT and DJ-1) or ejaculated frozen bull sperm was obtained. Sperm from each individual was divided and treated either with glycolic acid or with the vehicle for up to 90 minutes. Mouse sperm motility and progressivity was determined with the help of an automatized machine (CASA system, Hamilton-Thorne Research, http://www.hamiltonthorne.com/index.php/products/casa-products/sperm-analysis-systems-research) that uses high frequency photo images and image analysis to analyze these parameters. Frozen ejaculated bull sperm motility was assessed by an experienced technician. Mouse sperm from WT and DJ-1 mice was divided by the software into motile and non-motile sperm according to standardized parameters and results are given as percentages of the total population identified as motile sperm (FIG. 1-4). Sperm progressivity alone was analyzed only on the mouse sperm, as only the software from the CASA system is sensitive enough to make this analysis and this machine can only analyze mouse sperm. Bull sperm was divided into progressive motile, motile (the sum of progressive motile and motile on the spot) and the rest (FIGS. 5, 6 and 7).

[2] = test system: bull sperm; experiment: Bull sperm motility and progressive motility, defrosted sperm, assessed by technician; format: cell-based
Procedure: Frozen bull sperm was defrosted in a warm bath and centrifuged. The supernatant was removed and the sperms were resuspended in HTF-like medium alone or with glycolic acid. Sperms were incubated with the 10, 20 and 30 mM glycolic acid for 10 min. before the measurements began. Measurements were performed by an experienced technician from the urology department.
as §1

[3] = test system: human sperm; experiment: Human sperm motility, fresh and defrosted sperm; format: cell-based; details: 30 and 60 mM, significant (p<0.05) over whole experiment
Procedure: Human sperm was collected from donors after ejaculation and used on the same day. Frozen human sperm was defrosted in a warm bath before starting the experiments. The regional ethical committee approved sample collection and use of human sperm. Both fresh and frozen human sperm were centrifuged, the supernatant was removed and the sperms were resuspended in HTF-like medium alone or with glycolic acid. Sperms were incubated with the 30 and 60 mM glycolic acid for 10 min before the measurements began. Measurements were performed by an experienced technician from the urology department.
(§2) This enhancement can be observed in human sperm, both defrosted and fresh, and defrosted bull sperm. Two-way ANOVA analysis was used (much more restrictive than a t-Test). * means p<0.05, **p<0.01, ***p<0.001 and […]. […] Both sperm motility and mitochondrial measurements are normalized to a control at time-point 0.

[4] = test system: sperm mitochondrial membrane potential; experiment: Mitochondrial membrane potential of sperm (JC-1 and FACS sorting); format: cell-based; details: JC-1, FACS; normalized to control at time-point 0; FIG. 8
From the text: as §2

[5] = estimated; cited from earlier work
[6] = 10 mM, 30 minutes after application, average stated for mouse and bull sperm

Row | Structure (SMILES) | difference in treated mouse sperm compared to controls [1] | increase in sperm motility (percentage of motile spermatozoids) [1, 6] [%] | increase in sperm progressivity (percentage of motile spermatozoids that move forward) [1, 6] [%] | time over which the enhancement is sustained ([1]; both species) | increase in sperm motility (percentage of motile spermatozoids) [2, 6] [%] | increase in sperm progressivity (percentage of motile spermatozoids that move forward) [2, 6] [%] | bull sperm motility and progressivity at higher concentrations ([2]; 20 and 30 mM compared to 10 mM glycolic acid) | time over which the enhancement is sustained ([2]; both species) | sperm mobility, in particular sperm progressivity, at higher concentrations ([2]; concentrations up to 60 mM, data not shown) | sperm motility (FIG. 8), normalized to control at time-point 0 ([2]; defrosted bull sperm, significant (p<0.05) over whole experiment) | sperm motility (FIG. 8), normalized to control at time-point 0 [3] | mitochondrial membrane potential [4] | minimum toxic dose [5]
1 | C[C@@H](O)C(=O)O [D-lactate, reference compound] | not | – | – | – | – | – | – | – | – | – | – | – | –
2 | O=C(O)CO [Glycolic acid, 2-hydroxyethanoic acid] | significance difference | 19 | 28 | up to 90 min | 19 | 28 | further increase | up to 90 min | increase | enhances sperm motility | enhances sperm motility | did not increase | –
3 | OCCOCCO [diethylene glycol] | – | – | – | – | – | – | – | – | – | – | – | – | 0.14 mg glycolic acid per kg of body weight
